Results: US12472272B2, “Radiolabelled compounds for diagnosis or treatment of prostate-specific membrane antigen- expressing cancer” (PROVINCIAL HEALTH SERVICES AUTHORITY, priority 2019, dated 2025)
“Also recorded” adds a separate entry of the source.

Key:
[1] = system: PSMA-expressing cancer xenografts (LNCaP); assay: Biodistribution of ^177Lu-labeled HTK03041; type: in vivo, mice; settings: for Tissue (% ID/g): Salivary / Tissue (% ID/g): Seminal / Tissue (% ID/g): Spleen / Tissue (% ID/g): Stomach / Tissue (% ID/g): Tail / Tissue (% ID/g): Testes / Tissue (% ID/g): Thyroid / Tissue (% ID/g): Tumor / Tissue (% ID/g): Urine / tumor-to-background contrast ratio Tumor: Blood / tumor-to-background contrast ratio Tumor: Muscle / tumor-to-background contrast ratio Tumor: kidney / Tissue (% ID/g): Adrenal glands / Tissue (% ID/g): Blood / Tissue (% ID/g): Bone / Tissue (% ID/g): Brain / Tissue (% ID/g): Fat / Tissue (% ID/g): Heart / Tissue (% ID/g): Intestine / Tissue (% ID/g): Kidneys / Tissue (% ID/g): Lacrimal / Tissue (% ID/g): Liver / Tissue (% ID/g): Lungs / Tissue (% ID/g): Muscle / Tissue (% ID/g): Pancreas: ^177Lu
Experimental: (§1) Imaging and biodistribution experiments were performed using NODSCID 1L2RγKO male mice. Mice were anesthetized by inhalation with 2% isoflurane in oxygen, and implanted subcutaneously with 1×10^7 LNCaP cells behind left shoulder. Mice were imaged or used in biodistribution studies when the tumor grew up to reach 5-8 mm in diameter during 5-6 weeks.
(§2) SPECT/CT imaging experiments were conducted using the MlLabs (Utrecht, the Netherlands) U-SPECT-II/CT scanner. Each tumor bearing mouse was injected with ˜37 MBq of ^177Lu-labeled HTK03041 through the tail vein under anesthesia (2% isoflurane in oxygen). The mice were allowed to recover and roam freely in their cage and imaged at 1, 4, 24, 72 and 120 hours after injection. At each time point, the mice were sedated again and positioned in the scanner. A 5-min CT scan was conducted first for anatomical reference with a voltage setting at 60 kV and current at 615 μA followed by a 60-min static emission scan acquired in list mode using an ultra-high resolution multi-pinhole rat-mouse (1 mm pinhole size) collimator. Data were reconstructed using the U-SPECT II software with a 20% window width on three energy windows. The photopeak window was centered at 208 keV, with lower scatter and upper scatter windows centered at 170 and 255 keV, respectively. Reconstruction parameters used maximum-likelihood expectation maximization (3 iterations), pixel-based ordered subset expectation maximization (16 subsets), and a post-processing filter (Gaussian blurring) of 0.5 mm. Images were decay corrected to injection time in PMOD (PMOD Technologies, Switzerland) then converted to DICOM for qualitative visualization in Inveon Research Workplace (Siemens Medical Solutions USA, Inc.).
For biodistribution studies, the mice were injected with the radiotracer as described above. At predetermined time points (1 or 3 h for ^68Ga studies; 1, 4, 24, 72, or 120 h for ^177Lu studies), the mice was anesthetized with 2% isoflurane inhalation, and euthanized by CO2 inhalation. Blood was withdrawn immediately from the heart, and the organs/tissues of interest were collected. The collected organs/tissues were weighed and counted using a Perkin Elmer (Waltham, MA) Wizard2 2480 gamma counter. The uptake in each organ/tissue was normalized to the injected dose using a standard curve, and expressed as the percentage of the injected dose per gram of tissue (% ID/g).

[2] = system: LNCaP tumors; assay: SPECT/CT imaging of ^177Lu-labeled HTK03041; type: in vivo, mice; settings: 1 h to 120 h post-injection, FIG. 4
Experimental: as §1
as §2, with “Reconstruction parameters used maximum-likelihood expectation maximization (3 iterations), pixel-based ordered subset expectation maximization (16 subsets), and a post-processing filter (Gaussian blurring) of 0.5 mm. Images were decay corrected to injection time in PMOD (PMOD Technologies, Switzerland) then converted to DICOM for qualitative visualization in Inveon Research Workplace (Siemens Medical Solutions USA, Inc.).” left out

With `O=C([O-])CN1CCN(CC(=O)[O-])CCN(CC(=O)NC[C@H]2CC[C@H](C(=O)N[C@@H](Cc3c4ccccc4cc4ccccc34)C(=O)NCCCC[C@H](NC(=O)N[C@@H](CCC(=O)O)C(=O)O)C(=O)O)CC2)CCN(CC(=O)[O-])CC1.[177Lu+3]` [^177Lu-HTK03041] the “Tissue (% ID/g): Salivary” value ([1]; 24 h post-injection) was 0.40 ± 0.06 % ID/g, the “Tissue (% ID/g): Seminal” value ([1]; 24 h post-injection) was 0.23 ± 0.13 % ID/g and the “Tissue (% ID/g): Spleen” value ([1]; 24 h post-injection) was 0.59 ± 0.19 % ID/g. The “Tissue (% ID/g): Stomach” value ([1]; 24 h post-injection) was 0.18 ± 0.04 % ID/g, the “Tissue (% ID/g): Tail” value ([1]; 24 h post-injection) was 0.34 ± 0.17 % ID/g and the “Tissue (% ID/g): Testes” value ([1]; 24 h post-injection) was 0.40 ± 0.08 % ID/g. For the same compound, the “Tissue (% ID/g): Thyroid” value ([1]; 24 h post-injection) was 0.47 ± 0.09 % ID/g, the “Tissue (% ID/g): Tumor” value ([1]; 24 h post-injection) was 19.8 ± 6.13 % ID/g and the “Tissue (% ID/g): Urine” value ([1]; 24 h post-injection) was 23.8 ± 8.50 % ID/g. For the same compound, the “tumor-to-background contrast ratio Tumor: Blood” value ([1]; 24 h post-injection) was 282 ± 82.6, the “tumor-to-background contrast ratio Tumor: Muscle” value ([1]; 24 h post-injection) was 142 ± 30.1 and the “tumor-to-background contrast ratio Tumor: kidney” value ([1]; 24 h post-injection) was 0.97 ± 0.15. The “Tissue (% ID/g): Adrenal glands” value ([1]; 72 h post-injection) was 0.12 ± 0.05 % ID/g, the “Tissue (% ID/g): Blood” value ([1]; 72 h post-injection) was 0.02 ± 0.00 % ID/g and the “Tissue (% ID/g): Bone” value ([1]; 72 h post-injection) was 0.02 ± 0.01 % ID/g. The “Tissue (% ID/g): Brain” value ([1]; 72 h post-injection) was 0.01 ± 0.00 % ID/g, the “Tissue (% ID/g): Fat” value ([1]; 72 h post-injection) was 0.03 ± 0.01 % ID/g and the “Tissue (% ID/g): Heart” value ([1]; 72 h post-injection) was 0.07 ± 0.02 % ID/g. The “Tissue (% ID/g): Intestine” value ([1]; 72 h post-injection) was 0.13 ± 0.04 % ID/g, the “Tissue (% ID/g): Kidneys” value ([1]; 72 h post-injection) was 1.27 ± 0.58 % ID/g and the “Tissue (% ID/g): Lacrimal” value ([1]; 72 h post-injection) was 0.01 ± 0.01 % ID/g. The “Tissue (% ID/g): Liver” value ([1]; 72 h post-injection) was 0.13 ± 0.05 % ID/g, the “Tissue (% ID/g): Lungs” value ([1]; 72 h post-injection) was 0.14 ± 0.04 % ID/g and the “Tissue (% ID/g): Muscle” value ([1]; 72 h post-injection) was 0.02 ± 0.01 % ID/g. The “Tissue (% ID/g): Pancreas” value ([1]; 72 h post-injection) was 0.05 ± 0.02 % ID/g, the “Tissue (% ID/g): Salivary” value ([1]; 72 h post-injection) was 0.08 ± 0.03 % ID/g and the “Tissue (% ID/g): Seminal” value ([1]; 72 h post-injection) was 0.03 ± 0.01 % ID/g. For the same compound, the “Tissue (% ID/g): Spleen” value ([1]; 72 h post-injection) was 0.12 ± 0.04 % ID/g, the “Tissue (% ID/g): Stomach” value ([1]; 72 h post-injection) was 0.19 ± 0.09 % ID/g and the “Tissue (% ID/g): Tail” value ([1]; 72 h post-injection) was 0.13 ± 0.08 % ID/g. The “Tissue (% ID/g): Testes” value ([1]; 72 h post-injection) was 0.08 ± 0.02 % ID/g, the “Tissue (% ID/g): Thyroid” value ([1]; 72 h post-injection) was 0.09 ± 0.02 % ID/g and the “Tissue (% ID/g): Tumor” value ([1]; 72 h post-injection) was 15.2 ± 4.72 % ID/g. The “Tissue (% ID/g): Urine” value ([1]; 72 h post-injection) was 0.67 ± 0.22 % ID/g, the “tumor-to-background contrast ratio Tumor: Blood” value ([1]; 72 h post-injection) was 805 ± 164 and the “tumor-to-background contrast ratio Tumor: Muscle” value ([1]; 72 h post-injection) was 647 ± 119. For the same compound, the “tumor-to-background contrast ratio Tumor: kidney” value ([1]; 72 h post-injection) was 13.1 ± 3.75, the “Tissue (% ID/g): Adrenal glands” value ([1]; 120 h post-injection) was 0.11 ± 0.11 % ID/g and the “Tissue (% ID/g): Blood” value ([1]; 120 h post-injection) was 0.01 ± 0.01 % ID/g. For the same compound, the “Tissue (% ID/g): Bone” value ([1]; 120 h post-injection) was 0.02 ± 0.00 % ID/g, the “Tissue (% ID/g): Brain” value ([1]; 120 h post-injection) was 0.01 ± 0.00 % ID/g and the “Tissue (% ID/g): Fat” value ([1]; 120 h post-injection) was 0.05 ± 0.09 % ID/g. The “Tissue (% ID/g): Heart” value ([1]; 120 h post-injection) was 0.06 ± 0.02 % ID/g, the “Tissue (% ID/g): Intestine” value ([1]; 120 h post-injection) was 0.06 ± 0.03 % ID/g and the “Tissue (% ID/g): Kidneys” value ([1]; 120 h post-injection) was 1.06 ± 0.74 % ID/g. The “Tissue (% ID/g): Lacrimal” value ([1]; 120 h post-injection) was 0.01 ± 0.01 % ID/g, the “Tissue (% ID/g): Liver” value ([1]; 120 h post-injection) was 0.13 ± 0.04 % ID/g and the “Tissue (% ID/g): Lungs” value ([1]; 120 h post-injection) was 0.10 ± 0.04 % ID/g. The “Tissue (% ID/g): Muscle” value ([1]; 120 h post-injection) was 0.02 ± 0.02 % ID/g, the “Tissue (% ID/g): Pancreas” value ([1]; 120 h post-injection) was 0.04 ± 0.01 % ID/g and the “Tissue (% ID/g): Salivary” value ([1]; 120 h post-injection) was 0.06 ± 0.04 % ID/g. The “Tissue (% ID/g): Seminal” value ([1]; 120 h post-injection) was 0.02 ± 0.01 % ID/g, the “Tissue (% ID/g): Spleen” value ([1]; 120 h post-injection) was 0.22 ± 0.11 % ID/g and the “Tissue (% ID/g): Stomach” value ([1]; 120 h post-injection) was 0.05 ± 0.04 % ID/g. For the same compound, the “Tissue (% ID/g): Tail” value ([1]; 120 h post-injection) was 0.11 ± 0.07 % ID/g, the “Tissue (% ID/g): Testes” value ([1]; 120 h post-injection) was 0.06 ± 0.01 % ID/g and the “Tissue (% ID/g): Thyroid” value ([1]; 120 h post-injection) was 0.08 ± 0.03 % ID/g. The “Tissue (% ID/g): Tumor” value ([1]; 120 h post-injection) was 22.3 ± 6.90 % ID/g, the “Tissue (% ID/g): Urine” value ([1]; 120 h post-injection) was 0.29 ± 0.04 % ID/g and the “tumor-to-background contrast ratio Tumor: Blood” value ([1]; 120 h post-injection) was 1670 ± 272. For the same compound, the “tumor-to-background contrast ratio Tumor: Muscle” value ([1]; 120 h post-injection) was 1215 ± 512, the “tumor-to-background contrast ratio Tumor: kidney” value ([1]; 120 h post-injection) was 25.4 ± 9.59 and the “tumor uptake over the investigated time points” value ([1]; up to 120 h post-injection) was “remained at the similar level throughout the investigated time points; also recorded: sustained over the course of the study”. For the same compound, the “uptake in background tissues including kidneys in SPECT images” value [2] was “cleared quickly over time” and the “uptake in tumor in SPECT images” value [2] was “sustained over the course the study”.
